The results in this text go back to patent US11040035B2, “3-oxo-2,6-diphenyl-2,3-dihydropyridazine-4-carboxamides” (BAYER PHARMA AKTIENGESELLSCHAFT, priority 2016, dated 2021).

Assay [1] addresses T1, AHR (Homo sapiens, UniProt P35869).
T1 sequence (P35869 11-848): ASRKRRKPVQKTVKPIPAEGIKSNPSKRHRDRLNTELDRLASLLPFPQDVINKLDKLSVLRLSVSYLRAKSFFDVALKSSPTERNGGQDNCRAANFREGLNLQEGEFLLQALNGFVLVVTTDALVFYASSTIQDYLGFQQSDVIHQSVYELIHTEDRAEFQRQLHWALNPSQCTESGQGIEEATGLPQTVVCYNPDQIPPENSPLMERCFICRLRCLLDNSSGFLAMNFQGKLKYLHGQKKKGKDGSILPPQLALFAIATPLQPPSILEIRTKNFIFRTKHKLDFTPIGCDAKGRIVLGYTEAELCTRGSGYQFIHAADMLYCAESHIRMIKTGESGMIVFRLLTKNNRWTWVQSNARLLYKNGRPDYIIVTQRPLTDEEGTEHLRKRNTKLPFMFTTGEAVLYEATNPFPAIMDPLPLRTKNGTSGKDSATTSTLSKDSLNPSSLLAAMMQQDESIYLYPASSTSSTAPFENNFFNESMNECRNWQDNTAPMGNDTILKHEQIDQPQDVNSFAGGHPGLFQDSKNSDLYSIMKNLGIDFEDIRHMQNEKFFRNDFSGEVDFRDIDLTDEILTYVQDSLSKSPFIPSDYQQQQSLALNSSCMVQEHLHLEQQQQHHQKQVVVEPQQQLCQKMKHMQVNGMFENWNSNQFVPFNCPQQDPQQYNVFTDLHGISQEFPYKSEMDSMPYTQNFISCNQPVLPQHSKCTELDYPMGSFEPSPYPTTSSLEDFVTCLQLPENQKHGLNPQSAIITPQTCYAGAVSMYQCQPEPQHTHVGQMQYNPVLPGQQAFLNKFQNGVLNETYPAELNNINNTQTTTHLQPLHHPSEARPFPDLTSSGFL
Description: In vitro assay 1: antagonism in human cell line (transactivation assay, kynurenic acid prestimulated). The conditions noted are these: Assay 1: AHR-luc Hum Antagonism IC50 [M], 150 μM kynurenic acid, 20 hours, firefly luciferase.
Description: Transactivation assays were carried out in U87 glioblastoma cells (ATCC) endogenously expressing AHR. In addition the cells were stably transfected with an AHR inducible firefly luciferase reporter gene construct that carried AHR-binding sites (DRE) in its promoter and a renilla reporter gene construct with constitutively active promoter. Kynurenic acid is an endogenous AHR activating ligand and was used to prestimulate test cells prior to testing the antagonistic properties of compounds.
In Vitro Assay 1: Antagonism in Human Cell Line
Cells in medium (tryptophan free RPMI, 1% FCS, 2 mM Glutamine) supplemented with 150 μM kynurenic acid were grown for 20 hours in absence (negative control) or presence of increasing concentrations of test compounds (typical dilutions: 72 pmol/L, 0.25 nmol/L, 0.89 nmol/L; 3.1 nmol/L, 11 nmol/L, 38 nmol/L, 130 nmol/L, 470 nmol/L, 1.6 μmol/L, 5.7 μmol/L and 20 μmol/L in duplicates). As positive inhibition control cells supplemented with 150 μM kynurenic acid were incubated in presence of 5 μM Staurosporin. Normalization was done by positive and negative controls.
Firefly luciferase and Renilla activity was determined by the DualGlo Luciferase Assay System (Promega, #2920).

In assay [2] the target is T1, AHR. As to the kind of experiment: In vitro assay 2: agonism in human cell line (transactivation assay).
Setting [3] is: read-out: Assay 2: AHR-luc Hum Agonism IC50, no kynurenic acid, 20 hours, firefly luciferase.
Where [4] appears, read: Assay 2: AHR-luc Hum Agonism IC50 [M], no kynurenic acid, 20 hours, firefly luciferase.

Bounds are passed on as bounds.

Consider `O=C(NC(CO)CCO)c1cc(-c2ccc(Cl)cc2)nn(-c2cccc(F)c2)c1=O` (single isomer, unassigned; (-)) [Example 226, (−)-6-(4-Chlorophenyl)-N-(1,4-dihydroxybutan-2-yl)-2-(3-fluorophenyl)-3-oxo-2,3-dihydropyridazine-4-carboxamide], for which the half-inhibitory concentration (IC50) (in general, the concentration that inhibits the measured activity by half) against AHR [1] was 1.42e-07 M; at AHR [2] (setting [3]) it was > 2e-05 M.
Consider `O=C(NCC(O)C(F)(F)F)c1cc(-c2ccc(C(F)(F)F)cc2)nn(-c2cccc(F)c2)c1=O` (single isomer, unassigned; (-)) [Example 243], for which the IC50 was 3.13e-08 M on AHR [1] and > 2e-05 M against AHR [2] (setting [4]).
With `COCCC(CO)NC(=O)c1cc(-c2ccc(C(F)(F)F)cc2)nn(-c2cccc(F)c2)c1=O` (single isomer, unassigned; (-)) [Example 313, (−)-2-(3-fluorophenyl)-N-(1-hydroxy-4-methoxybutan-2-yl)-3-oxo-6-[4-(trifluoromethyl)-phenyl]-2,3-dihydropyridazine-4-carboxamide], the IC50 against AHR [1] was 1.67e-08 M; on AHR [2] (setting [4]) it was > 2e-05 M.
As for `O=C(NC(CCO)C(F)(F)F)c1cc(-c2ccc(Cl)cc2)nn(-c2cccc(F)c2)c1=O` (single isomer, unassigned; (-)) [Example 342, (−)-6-(4-chlorophenyl)-2-(3-fluorophenyl)-3-oxo-N-(1,1,1-trifluoro-4-hydroxybutan-2-yl)-2,3-dihydropyridazine-4-carboxamide], the IC50 on AHR [1] is 4.46e-07 M; against AHR [2] (setting [4]) it was > 2e-05 M.
The matching figures for `O=C(NC(CO)C1CC1)c1cc(-c2ccc(C(F)(F)F)cc2)nn(-c2cccc(F)c2)c1=O` (single isomer, unassigned; (-)) [Example 351, (−)-N-(1-cyclopropyl-2-hydroxyethyl)-2-(3-fluorophenyl)-3-oxo-6-[4-(trifluoromethyl)phenyl]-2,3-dihydropyridazine-4-carboxamide]: 4.84e-09 M and > 2e-05 M.
In the case of `Cc1ccc(-c2cc(C(=O)NCC(O)C(F)(F)F)c(=O)n(-c3cccc(F)c3)n2)cc1` (single isomer, unassigned; enantiomer 1) [Example 5, 2-(3-Fluorophenyl)-6-(4-methylphenyl)-3-oxo-N-(3,3,3-trifluoro-2-hydroxypropyl)-2,3-dihydropyridazine-4-carboxamide, enantiomer 1], the IC50 against AHR [1] is 1.65e-08 M; on AHR [2] (setting [4]), > 2e-05 M.
Taken in the same sequence, the figures for `Cc1ccc(-c2cc(C(=O)NCC(C)O)c(=O)n(-c3cccc(F)c3)n2)cc1` (single isomer, unassigned; enantiomer 1) [Example 14, 2-(3-Fluorophenyl)-N-(2-hydroxypropyl)-6-(4-methylphenyl)-3-oxo-2,3-dihydropyridazine-4-carboxamide, Enantiomer 1] were 1.75e-07 M and > 2e-05 M.
Regarding `COCC(O)CNC(=O)c1cc(-c2ccc(C)cc2)nn(-c2cccc(F)c2)c1=O` (single isomer, unassigned; enantiomer 1) [Example 17, 2-(3-Fluorophenyl)-N-(2-hydroxy-3-methoxypropyl)-6-(4-methylphenyl)-3-oxo-2,3-dihydropyridazine-4-carboxamide, Enantiomer 1], the IC50 against AHR [1] is 2.11e-07 M; against AHR [2] (setting [4]), > 2e-05 M.
`Cc1ccc(-c2cc(C(=O)NCC(O)C(F)(F)F)c(=O)n(-c3cccc(F)c3)n2)cc1` (single isomer, unassigned; enantiomer 2) [Example 6, 2-(3-Fluorophenyl)-6-(4-methylphenyl)-3-oxo-N-(3,3,3-trifluoro-2-hydroxypropyl)-2,3-dihydropyridazine-4-carboxamide, enantiomer 2]: the IC50 at AHR [1] was 6.58e-08 M; at AHR [2] (setting [3]) it was > 2e-05 M.
`Cc1ccc(-c2cc(C(=O)NCC(O)C(C)C)c(=O)n(-c3cccc(F)c3)n2)cc1` (single isomer, unassigned; enantiomer 2) [Example 12, 2-(3-Fluorophenyl)-N-(2-hydroxy-3-methylbutyl)-6-(4-methylphenyl)-3-oxo-2,3-dihydropyridazine-4-carboxamide, enantiomer 2]: the half-inhibitory concentration (IC50) against AHR [1] is 1.22e-07 M; at AHR [2] (setting [3]), > 2e-05 M.
With `Cc1ccc(-c2cc(C(=O)NCC(C)O)c(=O)n(-c3cccc(F)c3)n2)cc1` (single isomer, unassigned; enantiomer 2) [Example 15, 2-(3-Fluorophenyl)-N-(2-hydroxypropyl)-6-(4-methylphenyl)-3-oxo-2,3-dihydropyridazine-4-carboxamide, Enantiomer 2], the IC50 against AHR [1] was 2.62e-07 M; at AHR [2] (setting [3]) it was > 2e-05 M.
The matching figures for `COCC(O)CNC(=O)c1cc(-c2ccc(C)cc2)nn(-c2cccc(F)c2)c1=O` (single isomer, unassigned; enantiomer 2) [Example 18, 2-(3-Fluorophenyl)-N-(2-hydroxy-3-methoxypropyl)-6-(4-methylphenyl)-3-oxo-2,3-dihydropyridazine-4-carboxamide, Enantiomer 2]: 3.39e-07 M and > 2e-05 M.
As to `Cc1ccc(-c2cc(C(=O)NCC(O)C(F)(F)F)c(=O)n(-c3cccc(F)c3)n2)cc1` (centres unmarked) [Example 4, 2-(3-Fluorophenyl)-6-(4-methylphenyl)-3-oxo-N-(3,3,3-trifluoro-2-hydroxypropyl)-2,3-dihydropyridazine-4-carboxamide], the 50% inhibitory concentration (IC50) on AHR [1] was 2.92e-08 M; against AHR [2] (setting [4]) it was > 2e-05 M.
With `Cc1ccc(-c2cc(C(=O)N[C@@H](C)CO)c(=O)n(-c3cccc(F)c3)n2)cc1` [Example 8, 2-(3-Fluorophenyl)-N-[(2S)-1-hydroxypropan-2-yl]-6-(4-methylphenyl)-3-oxo-2,3-dihydropyridazine-4-carboxamide], the IC50 was 3.61e-08 M against AHR [1] and > 2e-05 M on AHR [2] (setting [4]).
The matching figures for `Cc1ccc(-c2cc(C(=O)NCC(O)C(C)C)c(=O)n(-c3cccc(F)c3)n2)cc1` (centres unmarked) [Example 10, 2-(3-Fluorophenyl)-N-(2-hydroxy-3-methylbutyl)-6-(4-methylphenyl)-3-oxo-2,3-dihydropyridazine-4-carboxamide]: 1.2e-07 M and > 2e-05 M.
Take `Cc1ccc(-c2cc(C(=O)NCC(C)O)c(=O)n(-c3cccc(F)c3)n2)cc1` (centres unmarked) [Example 13, 2-(3-Fluorophenyl)-N-(2-hydroxypropyl)-6-(4-methylphenyl)-3-oxo-2,3-dihydropyridazine-4-carboxamide]: the IC50 against AHR [1] was 1.43e-07 M; at AHR [2] (setting [4]) it was > 2e-05 M.
Consider `COCC(O)CNC(=O)c1cc(-c2ccc(C)cc2)nn(-c2cccc(F)c2)c1=O` (centres unmarked) [Example 16, 2-(3-Fluorophenyl)-N-(2-hydroxy-3-methoxypropyl)-6-(4-methylphenyl)-3-oxo-2,3-dihydropyridazine-4-carboxamide], for which the 50% inhibitory concentration (IC50) against AHR [1] was 1.74e-07 M; on AHR [2] (setting [4]) it was > 2e-05 M.
Turning to `C[C@H](CO)NC(=O)c1cc(-c2ccc(Cl)cc2)nn(-c2cccc(F)c2)c1=O` [Example 24, 6-(4-Chlorophenyl)-2-(3-fluorophenyl)-N-[(2R)-1-hydroxypropan-2-yl]-3-oxo-2,3-dihydropyridazine-4-carboxamide], the IC50 at AHR [1] is 3.02e-07 M; on AHR [2] (setting [4]), > 2e-05 M.
Regarding `CC(C)C(O)CNC(=O)c1cc(-c2ccc(Cl)cc2)nn(-c2cccc(F)c2)c1=O` (centres unmarked) [Example 28, 6-(4-Chlorophenyl)-2-(3-fluorophenyl)-N-(2-hydroxy-3-methylbutyl)-3-oxo-2,3-dihydropyridazine-4-carboxamide], the IC50 is 8.85e-08 M against AHR [1] and > 2e-05 M against AHR [2] (setting [4]).
